From the NIST ThermoML archive (doi:10.1021/je700287u)

Test: xn = mol fraction of the nth substance listed
Settings: Liquid

CN(CCO)CCO [N-methyldiethanolamine] + O
Settings | mass density [kg/m3]
333.04 K, 10996 kPa, x1 = 0.0369 | 1000
333.04 K, 11991 kPa, x1 = 0.0369 | 1000.4
333.04 K, 12996 kPa, x1 = 0.0369 | 1000.8
333.04 K, 13988 kPa, x1 = 0.0369 | 1001.2
333.04 K, 14991 kPa, x1 = 0.0369 | 1001.6
333.04 K, 15994 kPa, x1 = 0.0369 | 1002
333.04 K, 16992 kPa, x1 = 0.0369 | 1002.4
333.04 K, 17985 kPa, x1 = 0.0369 | 1002.8
333.04 K, 18990 kPa, x1 = 0.0369 | 1003.2
333.04 K, 19977 kPa, x1 = 0.0369 | 1003.6
333.05 K, 1013 kPa, x1 = 0.0893 | 1013
333.05 K, 2006 kPa, x1 = 0.0893 | 1013.4
333.05 K, 2994 kPa, x1 = 0.0893 | 1013.8
333.05 K, 4031 kPa, x1 = 0.0893 | 1014.2
333.05 K, 4999 kPa, x1 = 0.0893 | 1014.6
333.05 K, 6000 kPa, x1 = 0.0893 | 1015
333.05 K, 6995 kPa, x1 = 0.0893 | 1015.4
333.05 K, 8005 kPa, x1 = 0.0893 | 1015.8
333.05 K, 9000 kPa, x1 = 0.0893 | 1016.2
333.05 K, 9992 kPa, x1 = 0.0893 | 1016.5
333.05 K, 10993 kPa, x1 = 0.0893 | 1017
333.05 K, 11998 kPa, x1 = 0.0893 | 1017.3
333.05 K, 13000 kPa, x1 = 0.0893 | 1017.7
333.05 K, 14008 kPa, x1 = 0.0893 | 1018.1
333.05 K, 14983 kPa, x1 = 0.0893 | 1018.5
333.05 K, 16002 kPa, x1 = 0.0893 | 1018.9
333.05 K, 17032 kPa, x1 = 0.0893 | 1019.3
333.05 K, 17945 kPa, x1 = 0.0893 | 1019.6
333.05 K, 18989 kPa, x1 = 0.0893 | 1020
333.05 K, 19994 kPa, x1 = 0.0893 | 1020.4
342.91 K, 1008 kPa, x1 = 0.1302 | 1011.7
342.91 K, 1996 kPa, x1 = 0.1302 | 1012.1
342.91 K, 3044 kPa, x1 = 0.1302 | 1012.5
342.91 K, 4015 kPa, x1 = 0.1302 | 1012.9
342.91 K, 5006 kPa, x1 = 0.1302 | 1013.4
342.91 K, 5995 kPa, x1 = 0.1302 | 1013.8
342.91 K, 7010 kPa, x1 = 0.1302 | 1014.2
342.91 K, 8001 kPa, x1 = 0.1302 | 1014.6
342.91 K, 8996 kPa, x1 = 0.1302 | 1015
342.91 K, 9995 kPa, x1 = 0.1302 | 1015.5
342.91 K, 10992 kPa, x1 = 0.1302 | 1015.9
342.91 K, 12029 kPa, x1 = 0.1302 | 1016.3
342.91 K, 12993 kPa, x1 = 0.1302 | 1016.7
342.91 K, 13996 kPa, x1 = 0.1302 | 1017.1
342.91 K, 14997 kPa, x1 = 0.1302 | 1017.5
342.91 K, 15998 kPa, x1 = 0.1302 | 1017.9
342.91 K, 16997 kPa, x1 = 0.1302 | 1018.3
342.91 K, 18033 kPa, x1 = 0.1302 | 1018.8
342.91 K, 18977 kPa, x1 = 0.1302 | 1019.2
342.91 K, 19980 kPa, x1 = 0.1302 | 1019.6
342.94 K, 1029 kPa, x1 = 0.0893 | 1005.9
342.94 K, 1996 kPa, x1 = 0.0893 | 1006.3
342.94 K, 3018 kPa, x1 = 0.0893 | 1006.7
342.94 K, 3995 kPa, x1 = 0.0893 | 1007.1
342.94 K, 5000 kPa, x1 = 0.0893 | 1007.5
342.94 K, 5992 kPa, x1 = 0.0893 | 1007.9
342.94 K, 7008 kPa, x1 = 0.0893 | 1008.3
342.94 K, 7994 kPa, x1 = 0.0893 | 1008.8
342.94 K, 9001 kPa, x1 = 0.0893 | 1009.1
342.94 K, 9994 kPa, x1 = 0.0893 | 1009.6
342.94 K, 10983 kPa, x1 = 0.0893 | 1010
342.94 K, 12000 kPa, x1 = 0.0893 | 1010.4
342.94 K, 12996 kPa, x1 = 0.0893 | 1010.8
342.94 K, 14014 kPa, x1 = 0.0893 | 1011.2
342.94 K, 14994 kPa, x1 = 0.0893 | 1011.6
342.94 K, 15989 kPa, x1 = 0.0893 | 1012
342.94 K, 16991 kPa, x1 = 0.0893 | 1012.4
342.94 K, 17989 kPa, x1 = 0.0893 | 1012.8
342.94 K, 18984 kPa, x1 = 0.0893 | 1013.2
342.94 K, 19988 kPa, x1 = 0.0893 | 1013.6
342.96 K, 1042 kPa, x1 = 0.0607 | 999.5
342.96 K, 2006 kPa, x1 = 0.0607 | 999.8
342.96 K, 3028 kPa, x1 = 0.0607 | 1000.3
342.96 K, 4013 kPa, x1 = 0.0607 | 1000.7
342.96 K, 5003 kPa, x1 = 0.0607 | 1001.2
342.96 K, 5994 kPa, x1 = 0.0607 | 1001.6
342.96 K, 7004 kPa, x1 = 0.0607 | 1002
342.96 K, 8063 kPa, x1 = 0.0607 | 1002.5
342.96 K, 9140 kPa, x1 = 0.0607 | 1003
342.96 K, 10022 kPa, x1 = 0.0607 | 1003.4
342.96 K, 11032 kPa, x1 = 0.0607 | 1003.7
342.96 K, 11997 kPa, x1 = 0.0607 | 1004.1
342.96 K, 13009 kPa, x1 = 0.0607 | 1004.5
342.96 K, 14001 kPa, x1 = 0.0607 | 1004.9
342.96 K, 15005 kPa, x1 = 0.0607 | 1005.3
342.96 K, 16002 kPa, x1 = 0.0607 | 1005.7
342.96 K, 17011 kPa, x1 = 0.0607 | 1006.1
342.96 K, 17988 kPa, x1 = 0.0607 | 1006.5
342.96 K, 18992 kPa, x1 = 0.0607 | 1006.9
342.96 K, 20154 kPa, x1 = 0.0607 | 1007.3
352.84 K, 1009 kPa, x1 = 0.1302 | 1004
352.84 K, 2026 kPa, x1 = 0.1302 | 1004.3
352.84 K, 3005 kPa, x1 = 0.1302 | 1004.8
352.84 K, 4006 kPa, x1 = 0.1302 | 1005.3
352.84 K, 5004 kPa, x1 = 0.1302 | 1005.7
352.84 K, 5993 kPa, x1 = 0.1302 | 1006.1
352.84 K, 6991 kPa, x1 = 0.1302 | 1006.5
352.84 K, 7992 kPa, x1 = 0.1302 | 1006.9
352.84 K, 8994 kPa, x1 = 0.1302 | 1007.4
352.84 K, 9980 kPa, x1 = 0.1302 | 1007.8
352.84 K, 10971 kPa, x1 = 0.1302 | 1008.2
352.84 K, 11987 kPa, x1 = 0.1302 | 1008.7
352.84 K, 13040 kPa, x1 = 0.1302 | 1009.1
352.84 K, 13997 kPa, x1 = 0.1302 | 1009.5
352.84 K, 14981 kPa, x1 = 0.1302 | 1009.9
